The results in this text go back to ChEMBL document CHEMBL5291721, “A preclinical secondary pharmacology resource illuminates target-adverse drug reaction associations of marketed drugs” (Nat Commun, 2023).

The target of assay [1] is T1, Neuropeptide Y receptor type 1 (Homo sapiens, UniProt P25929).
T1 sequence (P25929 whole entry): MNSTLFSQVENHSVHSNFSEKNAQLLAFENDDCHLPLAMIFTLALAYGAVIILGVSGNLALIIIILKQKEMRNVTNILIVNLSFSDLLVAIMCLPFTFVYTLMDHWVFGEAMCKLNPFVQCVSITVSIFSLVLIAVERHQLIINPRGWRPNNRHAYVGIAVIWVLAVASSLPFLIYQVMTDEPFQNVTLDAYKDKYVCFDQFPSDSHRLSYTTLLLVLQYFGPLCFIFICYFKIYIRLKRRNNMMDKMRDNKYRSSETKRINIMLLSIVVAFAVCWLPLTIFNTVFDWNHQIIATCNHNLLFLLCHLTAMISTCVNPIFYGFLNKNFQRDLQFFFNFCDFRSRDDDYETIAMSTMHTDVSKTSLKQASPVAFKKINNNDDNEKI

In assay [2] the target is T2, Alpha-2A adrenergic receptor (Homo sapiens, UniProt P08913).
T2 sequence (P08913 whole entry): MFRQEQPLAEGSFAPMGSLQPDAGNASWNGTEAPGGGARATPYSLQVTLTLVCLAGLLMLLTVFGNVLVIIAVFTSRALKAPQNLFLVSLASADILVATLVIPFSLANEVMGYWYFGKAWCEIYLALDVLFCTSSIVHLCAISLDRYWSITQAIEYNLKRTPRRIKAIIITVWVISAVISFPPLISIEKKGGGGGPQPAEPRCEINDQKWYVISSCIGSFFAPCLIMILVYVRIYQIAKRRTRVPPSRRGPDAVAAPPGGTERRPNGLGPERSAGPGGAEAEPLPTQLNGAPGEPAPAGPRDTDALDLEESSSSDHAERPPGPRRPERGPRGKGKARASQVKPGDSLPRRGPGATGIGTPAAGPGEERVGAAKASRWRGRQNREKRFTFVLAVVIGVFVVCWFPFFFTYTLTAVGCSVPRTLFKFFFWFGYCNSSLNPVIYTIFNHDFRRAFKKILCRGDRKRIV
It is filed as functional, cell-based.

In assay [3] the target is 5-hydroxytryptamine receptor 2B (Homo sapiens, UniProt P41595). It is filed as functional, cell-based.
Assay [4] concerns the target Glutamate receptor ionotropic, NMDA 1 (Rattus norvegicus, UniProt P35439).
Assay [5] deals with T3, Equilibrative nucleoside transporter 1 (Homo sapiens, UniProt Q99808).
T3 sequence (Q99808 whole entry): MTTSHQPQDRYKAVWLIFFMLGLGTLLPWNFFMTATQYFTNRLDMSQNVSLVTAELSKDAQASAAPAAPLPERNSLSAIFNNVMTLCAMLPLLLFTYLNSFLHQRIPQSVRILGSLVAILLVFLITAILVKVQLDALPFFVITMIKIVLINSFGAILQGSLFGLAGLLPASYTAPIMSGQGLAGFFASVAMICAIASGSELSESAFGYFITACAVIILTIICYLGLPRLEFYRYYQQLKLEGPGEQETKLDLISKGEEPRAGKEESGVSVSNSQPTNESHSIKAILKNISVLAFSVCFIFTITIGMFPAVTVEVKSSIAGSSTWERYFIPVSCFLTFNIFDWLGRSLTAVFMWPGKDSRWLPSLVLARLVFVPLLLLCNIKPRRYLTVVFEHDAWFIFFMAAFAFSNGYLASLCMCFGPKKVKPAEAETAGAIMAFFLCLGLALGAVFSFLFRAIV

The target of assay [6] is T4, Progesterone receptor (Homo sapiens, UniProt P06401).
T4 sequence (P06401 whole entry): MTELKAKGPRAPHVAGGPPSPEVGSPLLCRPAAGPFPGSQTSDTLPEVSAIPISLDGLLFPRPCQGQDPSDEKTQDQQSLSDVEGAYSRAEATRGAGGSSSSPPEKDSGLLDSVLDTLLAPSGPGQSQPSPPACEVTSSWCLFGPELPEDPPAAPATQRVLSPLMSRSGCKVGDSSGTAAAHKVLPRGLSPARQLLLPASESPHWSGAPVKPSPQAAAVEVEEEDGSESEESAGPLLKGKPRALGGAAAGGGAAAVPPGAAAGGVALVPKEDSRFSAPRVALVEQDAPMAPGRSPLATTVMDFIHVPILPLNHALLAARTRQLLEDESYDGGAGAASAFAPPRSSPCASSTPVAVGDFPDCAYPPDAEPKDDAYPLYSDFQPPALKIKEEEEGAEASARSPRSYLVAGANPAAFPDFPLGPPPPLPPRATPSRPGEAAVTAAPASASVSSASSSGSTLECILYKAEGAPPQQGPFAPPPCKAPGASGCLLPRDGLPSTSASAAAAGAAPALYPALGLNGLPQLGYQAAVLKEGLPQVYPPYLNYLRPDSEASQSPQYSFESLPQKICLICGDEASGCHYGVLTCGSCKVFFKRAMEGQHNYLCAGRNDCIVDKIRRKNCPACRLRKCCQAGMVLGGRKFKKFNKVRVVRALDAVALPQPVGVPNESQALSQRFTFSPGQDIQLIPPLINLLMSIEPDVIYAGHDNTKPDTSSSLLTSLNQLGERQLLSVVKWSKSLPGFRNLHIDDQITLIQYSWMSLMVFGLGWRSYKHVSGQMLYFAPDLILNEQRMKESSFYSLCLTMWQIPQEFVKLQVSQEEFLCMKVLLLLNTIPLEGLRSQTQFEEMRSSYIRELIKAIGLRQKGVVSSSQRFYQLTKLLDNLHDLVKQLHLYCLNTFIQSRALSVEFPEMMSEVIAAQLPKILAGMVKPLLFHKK
The class given is functional.
Further: assay procedure not described here.

Sequence of 5-hydroxytryptamine receptor 2B (P41595 whole entry): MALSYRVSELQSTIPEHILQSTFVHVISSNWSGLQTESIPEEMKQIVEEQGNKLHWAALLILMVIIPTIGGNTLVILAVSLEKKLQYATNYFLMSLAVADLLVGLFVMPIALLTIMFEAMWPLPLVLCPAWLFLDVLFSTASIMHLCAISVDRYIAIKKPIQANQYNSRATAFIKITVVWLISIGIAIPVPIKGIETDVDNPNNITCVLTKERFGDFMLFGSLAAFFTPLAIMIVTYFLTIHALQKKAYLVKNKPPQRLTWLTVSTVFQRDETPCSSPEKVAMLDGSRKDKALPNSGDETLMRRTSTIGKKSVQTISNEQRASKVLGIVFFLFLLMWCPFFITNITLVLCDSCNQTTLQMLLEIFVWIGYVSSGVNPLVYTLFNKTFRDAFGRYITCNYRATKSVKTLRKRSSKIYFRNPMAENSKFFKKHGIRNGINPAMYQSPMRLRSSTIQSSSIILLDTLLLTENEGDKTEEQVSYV

Turning to `CC(C)CN(C[C@@H](O)[C@H](Cc1ccccc1)NC(=O)O[C@H]1CCOC1)S(=O)(=O)c1ccc(N)cc1`, the AC50 in assay [1] was more than 30 µM; in assay [2], more than 10 µM; in assay [3], more than 10 µM; in assay [4], more than 10 µM; in assay [5], more than 10 µM; in assay [6], more than 10 µM.
Turning to `CC1=C(CC(=O)O)c2cc(F)ccc2/C1=C\c1ccc([S+](C)[O-])cc1` (stereo not drawn), the half-maximal activity concentration (AC50) in assay [1] is more than 30 µM; in assay [2] it was more than 10 µM; in assay [3], more than 10 µM; in assay [4], more than 10 µM; in assay [5], more than 30 µM.
With `Cc1nnc2n1-c1ccc(Cl)cc1C(c1ccccc1)=NC2` [ALPRAZOLAM], the concentration at half-maximal activity (AC50) in assay [1] is more than 30 µM; in assay [2], more than 10 µM; in assay [3], more than 10 µM; in assay [4] it was more than 10 µM; in assay [5], more than 30 µM.
As for `CNCCc1ccccn1` [BETAHISTINE], the AC50 in assay [1], in assay [2], in assay [3], in assay [4], in assay [5] and in assay [6] was more than 30 µM each time.
Turning to `O=C(O)CCCC[C@@H]1SC[C@@H]2NC(=O)N[C@@H]21` [BIOTIN], the half-maximal activity concentration (AC50) in assay [1], in assay [2], in assay [3] and in assay [5] was more than 10 µM each time.
Consider `CC(NC(C)(C)C)C(=O)c1cccc(Cl)c1` (stereo not drawn) [BUPROPION], for which the AC50 in assay [1] is more than 30 µM; in assay [2] it was more than 10 µM; in assay [3], more than 10 µM; in assay [4], more than 10 µM; in assay [5], more than 30 µM.
As to `CCCCOC(=O)c1ccc(N)cc1` [BUTAMBEN], the AC50 in assay [1], in assay [2], in assay [3], in assay [4], in assay [5] and in assay [6] was more than 30 µM each time.
For `CN(Cc1ccc(C(C)(C)C)cc1)Cc1cccc2ccccc12` [BUTENAFINE], the AC50 in assay [1] is more than 10 µM; in assay [2] it was more than 10 µM; in assay [3], more than 10 µM; in assay [4], more than 10 µM; in assay [5], more than 10 µM; in assay [6] it was more than 30 µM.
As for `O=C1CN=C(c2ccccc2Cl)c2cc([N+](=O)[O-])ccc2N1` [CLONAZEPAM], the concentration at half-maximal activity (AC50) in assay [1] was more than 30 µM; in assay [2] it was more than 10 µM; in assay [3], more than 10 µM; in assay [4] it was more than 10 µM; in assay [5], more than 30 µM.
Turning to `CC1CC(OC(=O)C(O)c2ccccc2)CC(C)(C)C1` (stereo not drawn) [CYCLANDELATE], the concentration at half-maximal activity (AC50) is more than 10 µM in assay [1]; more than 10 µM in assay [2]; more than 10 µM in assay [3]; more than 10 µM in assay [4]; more than 30 µM in assay [5]; more than 30 µM in assay [6].
Regarding `OCCN(CCO)c1nc(N2CCCCC2)c2nc(N(CCO)CCO)nc(N3CCCCC3)c2n1` [DIPYRIDAMOLE], the half-maximal activity concentration (AC50) is more than 30 µM in assay [1], more than 10 µM in assay [2], 15 µM in assay [3] and more than 30 µM in assay [4].
In the case of `CCc1ccc(C(=O)C(C)CN2CCCCC2)cc1` (stereo not drawn) [EPERISONE], the concentration at half-maximal activity (AC50) in assay [1], in assay [2], in assay [3], in assay [4], in assay [5] and in assay [6] was more than 30 µM each time.
With `CCC1(C)CC(=O)NC1=O` (stereo not drawn) [ETHOSUXIMIDE], the AC50 in assay [1], in assay [2], in assay [3], in assay [4], in assay [5] and in assay [6] was more than 10 µM throughout.
For the molecule `CCOC(=O)C1=C(C)NC(C)=C(C(=O)OC)C1c1cccc(Cl)c1Cl` (stereo not drawn) [FELODIPINE], the half-maximal activity concentration (AC50) was more than 30 µM in assay [1]; more than 10 µM in assay [2]; more than 10 µM in assay [3]; more than 10 µM in assay [4]; 28 µM in assay [5].
Take `CC(=O)OCC(=O)[C@@]1(O)CC[C@H]2[C@@H]3CCC4=CC(=O)CC[C@]4(C)[C@@]3(F)[C@@H](O)C[C@@]21C` [FLUDROCORTISONE ACETATE]: the AC50 in assay [1] is more than 30 µM; in assay [2] it was more than 30 µM; in assay [3], more than 30 µM; in assay [4] it was more than 30 µM; in assay [5], more than 30 µM; in assay [6], 8.2 µM.
On to `CC(=O)[C@@]1(O)CC[C@H]2[C@@H]3C[C@H](C)C4=CC(=O)C=C[C@]4(C)[C@@]3(F)[C@@H](O)C[C@@]21C` [FLUOROMETHOLONE], for which the AC50 in assay [1] was more than 10 µM; in assay [2] it was more than 10 µM; in assay [3], more than 10 µM; in assay [4] it was more than 10 µM; in assay [5] it was more than 10 µM; in assay [6], 0.053 µM.
Regarding `CN1C2CCCC1CC(NC(=O)c1nn(C)c3ccccc13)C2` (stereo not drawn) [GRANISETRON], the AC50 in assay [1] was more than 30 µM; in assay [2], more than 10 µM; in assay [3], more than 10 µM; in assay [4] it was more than 10 µM; in assay [5], more than 30 µM.
In the case of `N=C(N)NC(=O)Cc1c(Cl)cccc1Cl` [GUANFACINE], the AC50 in assay [1] is more than 30 µM; in assay [3] it was 0.358 µM; in assay [4], more than 30 µM; in assay [5] it was more than 30 µM.
Turning to `CC1Cc2ccccc2N1NC(=O)c1ccc(Cl)c(S(N)(=O)=O)c1` (stereo not drawn) [INDAPAMIDE], the AC50 was more than 30 µM in assay [1]; more than 10 µM in assay [2]; more than 10 µM in assay [3]; more than 10 µM in assay [4]; more than 30 µM in assay [5].
For `CCN(CC)CC(=O)Nc1c(C)cccc1C` [LIDOCAINE], the concentration at half-maximal activity (AC50) in assay [1] and in assay [5] was more than 30 µM in each case.
On to `Nc1cc(N2CCCCC2)nc(N)[n+]1[O-]` [MINOXIDIL], for which the AC50 in assay [2], in assay [3] and in assay [4] was more than 10 µM each time.
Regarding `COc1nc(C)nc(Cl)c1N=C1NCCN1` [MOXONIDINE], the AC50 in assay [1], in assay [3], in assay [4] and in assay [6] was more than 30 µM each time.
For SITOSTEROLS, the half-maximal activity concentration (AC50) in assay [1], in assay [2], in assay [3], in assay [4] and in assay [5] was more than 30 µM each time.
With TEPRENONE, the AC50 in assay [2], in assay [3] and in assay [4] was more than 10 µM in each case.

As a reminder, the AC50 is the midpoint of the concentration-response curve, whichever way the signal moves. A lower AC50 goes with activity at low concentration.
